In patent US20250101065A1, “REVERSE PEPTIDES FROM CORONAVIRUS FOR IMMUNOGENIC PURPOSES” (Emergex Vaccines Holding Limited, priority 2021, published 2025):
No end group written: not given here.

Legend:
human PBMCs = assay: IFN-gamma ELISPOT after stimulation of PBMCs with negative sense SARS-COV-2 peptides; assay type: cell-based
CD3+ T cells of PBMCs = assay: Flow cytometry analysis of T cell surface markers after peptide stimulation of PBMCs; assay type: cell-based, human
Protocol: At day 7 post-stimulation, remaining PBMCs were resuspended in flow cytometry buffer (PBS+1% BSA+2 mM EDTA) at a concentration of 1×10^6 cells/mL, and blocked for at least 10 minutes. Cells were then aliquoted in a 96-well plate, centrifuged (5 mins/[…]/300×g), and resuspended in 45 μL buffer. Live/Dead stain was added (Fixable Near IR) at 1 μL in 1000 μL, and cells incubated at […] for 10 minutes in the dark. 120 μL buffer was added, samples were centrifuged for 5 mins, supernatants discarded and wash repeated with 200 μL buffer. Cells were then resuspended in buffer containing antibodies to T cell markers at the appropriate concentration (final staining volume 50 μL) and incubated for at least 30 minutes in the dark at […]
120 μL buffer was added to cell samples, centrifuged for 5 mins, supernatants discarded. This wash step was then repeated. Compensation beads were incubated with the individual antibodies at the same concentration. Voltages on the Attune flow cytometer were adjusted using antibody-stained compensation beads, as well as unstained and NIR-stained cells.
Acquisition was set to acquire at least 150,000 events on CD3 gated cells.
PBMCs were stained with a panel of antibodies (as listed in the previous section) against cell surface markers to characterize different T cell populations, such as naïve T cells (A), Central memory T cells (B), Effector memory T cells (C) and (D), and resident memory T cells (E). In addition, activation markers were also analysed (F) to (I). The percentage of positive cells gated on CD3+T cell populations were plotted.

[1] = PBMCs from EVB00028, day 7 post-stimulation

| Sequence | IFN-gamma ELISPOT reactivity (human PBMCs; donors EVB00028 and EVB00031) | Activation of CD3+ cells (upregulation of CD69, CD38, OX40/CD25, PDL1/CD25) (CD3+ T cells of PBMCs; [1]) | Activation of CD3+ cells (upregulation of CD69, CD38, OX40/CD25, PDL1/CD25) (CD3+ T cells of PBMCs; PBMCs from EVB00033, day 7 post-stimulation) | IFN-gamma ELISPOT reactivity (human PBMCs; all three donors (EVB00028, EVB00031, EVB00033), 7 days stimulation, 24 h re-stimulation) | IFN-gamma ELISPOT reactivity (human PBMCs; donor EVB00033) |
| --- | --- | --- | --- | --- | --- |
| VFTLHSRTSF [SEQ ID NO: 12] | reacted strongly | – | – | – | – |
| LYVALLVALLTCQ [SEQ ID NO: 6, LYVALLVALLTCQ] | – | induced activation | similarly activated | strong reactivity | – |
| VALLTCQTIGLCN [SEQ ID NO: 11] | – | induced activation | – | – | reacted strongly |
